This test has as its system CD2F1 mice, L1210 leukemia sc, survival T/C. As to the kind of experiment: NCI In Vivo Anticancer Drug Screen. Data for tumor model L1210 Leukemia (subcutaneous) in CD2F1 (CDF1) mice. The following applies: endpoint: median survival time, higher = longer survival. The protocol: The antitumor activity of compounds was measured in mice bearing transplantable tumors. Survival or tumor size were measured and the results are expressed as the measurement made in the treated group (T) divided by the measurement made in the vehicle treated control group (C). The tumor model used in this assay is L1210 Leukemia (subcutaneous) in CD2F1 (CDF1) mice

Setting [1] is: dose: 180.0 mg/kg/injection, schedule: Q01DX Z (sc), vehicle: methylcellulose (MC).

Results on twelve molecules are retold here after PubChem BioAssay AID258 (DTP/NCI, 2004).

Where “and” joins values, the source holds several entries; their conditions need not be identical. Identical values can stand only once. Toxic doses and inconclusive results are not listed.

For `NC(Cc1ccccc1)C(=O)OCN1C(=O)C2C3C=CC(C2C1=O)C1C2C(=O)N(COC(=O)C(N)Cc4ccccc4)C(=O)C2C31` (stereo not given), the T/C was 107 % of control (dose: 21.6 mg/kg/injection, schedule: Q01DX005 (iv), vehicle: other); 111 % of control (dose: 21.6 mg/kg/injection, schedule: Q01DX009 (ip), vehicle: other); 107 % of control and 121 % of control (dose: 21.6 mg/kg/injection, schedule: Q01DX009 (ip), vehicle: water); 105 % of control (dose: 30.9 mg/kg/injection, schedule: Q01DX005 (iv), vehicle: other); 112 % of control (dose: 30.9 mg/kg/injection, schedule: Q01DX009 (ip), vehicle: other); 107 % of control (dose: 30.9 mg/kg/injection, schedule: Q01DX009 (ip), vehicle: water). The T/C reads like this: (dose: 36.0 mg/kg/injection, schedule: Q01DX009 (ip), vehicle: water) 109 % of control; (dose: 44.1 mg/kg/injection, schedule: Q01DX005 (iv), vehicle: other) 111 % of control; (dose: 44.1 mg/kg/injection, schedule: Q01DX009 (ip), vehicle: other) 114 % of control; (dose: 63.0 mg/kg/injection, schedule: Q01DX005 (iv), vehicle: other) 117 % of control; (dose: 90.0 mg/kg/injection, schedule: Q01DX009 (ip), vehicle: other) 177 % of control; (dose: 90.0 mg/kg/injection, schedule: Q01DX009 (ip), vehicle: water) 169 % of control. Besides, the T/C (dose: 100.0 mg/kg/injection, schedule: Q01DX009 (ip), vehicle: water) is 211 % of control; the T/C (dose: 128.6 mg/kg/injection, schedule: Q01DX009 (ip), vehicle: other) was 221 % of control; the T/C (dose: 128.6 mg/kg/injection, schedule: Q01DX009 (ip), vehicle: water) was 227 % of control; the T/C (dose: 216.0 mg/kg/injection, schedule: Q01DX009 (oral), vehicle: water) was 122 % of control; the T/C (dose: 441.0 mg/kg/injection, schedule: Q01DX009 (oral), vehicle: other) is 162 % of control; the T/C (dose: 630.0 mg/kg/injection, schedule: Q01DX009 (oral), vehicle: other) is 234 % of control. In addition, the T/C was 171 % of control (dose: 630.0 mg/kg/injection, schedule: Q01DX009 (oral), vehicle: water) and 270 % of control (dose: 900.0 mg/kg/injection, schedule: Q01DX009 (oral), vehicle: water).

For the molecule `[Cl][Pt+2][Cl].[NH-]CC1(C[NH-])CCC1`, the T/C (dose: 3.12 mg/kg/injection, schedule: Q01DX009 (ip), vehicle: Klucel (hydroxypropylcellulose) (HPC)) was 158 % of control.

In the case of `ONc1ncnc2nc[nH]c12`, the T/C reads like this: (dose: 50.0 mg/kg/injection, schedule: Q01DX Z (sc), vehicle: steriod suspending solution) 112 % of control; (dose: 100.0 mg/kg/injection, schedule: Q01DX Z (sc), vehicle: steriod suspending solution) 118 % of control; (dose: 400.0 mg/kg/injection, schedule: Q01DX Z (sc), vehicle: steriod suspending solution) 168 % of control.

As to `CO[C@@]12[C@H](COC(N)=O)C3=C(C(=O)C(C)=C(N)C3=O)N1C[C@@H]1N[C@@H]12`, the T/C reads like this: (dose: 0.7 mg/kg/injection, schedule: Q01DX Z (sc), vehicle: saline) 100 % of control; (dose: 1.17 mg/kg/injection, schedule: Q01DX Z (sc), vehicle: saline) 100 % of control; (dose: 1.95 mg/kg/injection, schedule: Q01DX Z (sc), vehicle: saline) 100 % of control; (dose: 3.25 mg/kg/injection, schedule: Q01DX Z (sc), vehicle: saline) 108 % of control; (dose: 9.03 mg/kg/injection, schedule: Q01DX Z (sc), vehicle: saline) 116 % of control.

Take `COc1ccc2c(c1)-c1nn(CCCN(C)C)c3ccc([N+](=O)[O-])c(c13)N2`: the T/C runs as follows: (dose: 3.12 mg/kg/injection, schedule: Q01DX009 (ip), vehicle: water) 122 % of control; (dose: 6.25 mg/kg/injection, schedule: Q01DX009 (ip), vehicle: water) 161 % of control; (dose: 25.0 mg/kg/injection, schedule: Q01DX009 (ip), vehicle: water) 104 % of control.

As for `CCOC(C)C(/C=N/NC(N)=S)=NNC(N)=S` (stereo not given), the T/C (dose: 65.0 mg/kg/injection, schedule: Q01DX Z (sc), vehicle: carboxymethylcellulose (CMC)) was 110 % of control; the T/C (dose: 108.0 mg/kg/injection, schedule: Q01DX Z (sc), vehicle: carboxymethylcellulose (CMC)) was 110 % of control; the T/C (dose: 180.0 mg/kg/injection, schedule: Q01DX Z (sc), vehicle: carboxymethylcellulose (CMC)) is 120 % of control; the T/C (dose: 300.0 mg/kg/injection, schedule: Q01DX Z (sc), vehicle: carboxymethylcellulose (CMC)) is 110 % of control.

With `CCn1cnc2c(SC)ncnc21`, the T/C by setting is: (dose: 65.0 mg/kg/injection, schedule: Q01DX Z (sc), vehicle: methylcellulose (MC)) 100 % of control; (dose: 108.0 mg/kg/injection, schedule: Q01DX Z (sc), vehicle: methylcellulose (MC)) 100 % of control; under setting [1], 100 % of control.

As for `CN(C)c1nc(N(C)C)nc(N(C)C)n1`, the T/C (dose: 19.0 mg/kg/injection, schedule: Q01DX009 (ip), vehicle: saline with Tween-80) was 97 % of control; the T/C (dose: 20.0 mg/kg/injection, schedule: Q01DX009 (ip), vehicle: saline with Tween-80) is 106 % of control; the T/C (dose: 20.0 mg/kg/injection, schedule: Q01DX009 (sc), vehicle: saline) is 107 % of control; the T/C (dose: 37.5 mg/kg/injection, schedule: Q01DX009 (ip), vehicle: saline with Tween-80) is 91 % of control; the T/C (dose: 40.0 mg/kg/injection, schedule: Q01DX009 (ip), vehicle: saline with Tween-80) was 102 % of control; the T/C (dose: 40.0 mg/kg/injection, schedule: Q01DX009 (sc), vehicle: saline) is 100 % of control. Besides, the T/C runs as follows: (dose: 75.0 mg/kg/injection, schedule: Q01DX009 (ip), vehicle: saline with Tween-80) 104 % of control; (dose: 80.0 mg/kg/injection, schedule: Q01DX009 (ip), vehicle: saline with Tween-80) 106 % of control; (dose: 80.0 mg/kg/injection, schedule: Q01DX009 (sc), vehicle: saline) 100 % of control; (dose: 150.0 mg/kg/injection, schedule: Q01DX009 (ip), vehicle: saline with Tween-80) 91 % of control; (dose: 160.0 mg/kg/injection, schedule: Q01DX009 (ip), vehicle: saline with Tween-80) 109 % of control and 110 % of control; (dose: 160.0 mg/kg/injection, schedule: Q01DX009 (sc), vehicle: saline) 113 % of control. Besides, for the setting “dose: 240.0 mg/kg/injection, schedule: Q01DX009 (ip), vehicle: saline with Tween-80”, the T/C is 90 % of control.

In the case of `COc1cc([C@@H]2c3cc4c(cc3[C@H](OC(C)=O)[C@H]3COC(=O)[C@@H]23)OCO4)cc(OC)c1OC`, under “dose: 500.0 mg/kg/injection, schedule: Q01DX Z (sc), vehicle: methylcellulose (MC)”, the T/C was 100 % of control.

Regarding `Nc1n[nH]c2ccccc12`, the T/C by setting is: (dose: 25.0 mg/kg/injection, schedule: Q01DX005 (ip), vehicle: acid diluted with saline) 102 % of control; (dose: 25.0 mg/kg/injection, schedule: Q01DX009 (ip), vehicle: acid diluted with saline) 113 % of control; (dose: 50.0 mg/kg/injection, schedule: Q01DX005 (ip), vehicle: acid diluted with saline) 106 % of control; (dose: 50.0 mg/kg/injection, schedule: Q01DX009 (ip), vehicle: acid diluted with saline) 99 % of control; (dose: 100.0 mg/kg/injection, schedule: Q01DX005 (ip), vehicle: acid diluted with saline) 104 % of control; (dose: 100.0 mg/kg/injection, schedule: Q01DX009 (ip), vehicle: acid diluted with saline) 103 % of control. In addition, the T/C (dose: 200.0 mg/kg/injection, schedule: Q01DX005 (ip), vehicle: acid diluted with saline) is 110 % of control.

On to `N#Cc1c(-c2ccc(F)cc2)c(-c2ccc(F)cc2)nn(CCO)c1=O`, for which the T/C is, setting by setting: (dose: 108.0 mg/kg/injection, schedule: Q01DX005 (ip), vehicle: distilled water + Tween-80 + alcohol) 109 % of control; (dose: 180.0 mg/kg/injection, schedule: Q01DX005 (ip), vehicle: distilled water + Tween-80 + alcohol) 113 % of control; (dose: 300.0 mg/kg/injection, schedule: Q01DX005 (ip), vehicle: distilled water + Tween-80 + alcohol) 113 % of control; (dose: 833.0 mg/kg/injection, schedule: Q01DX005 (ip), vehicle: distilled water + Tween-80 + alcohol) 178 % of control.

With `C[C@]12C[C@H](O)[C@H]3[C@@H](CCC4=CC(=O)CC[C@@]43C)[C@@H]1CC[C@@H]2C(=O)CO`, under setting [1], the T/C is 100 % of control.
